The text below walks through data of patent US11878049B1, “Mitapivat therapy and modulators of cytochrome P450” (Agios Pharmaceuticals, Inc., priority 2019, dated 2024).

The structures appear in SMILES notation. Structures can show the parent of a compound that is named as a salt.

Holding throughout (assay type): in vitro ADME
The target of series [1] is CYP3A4 (Homo sapiens, UniProt P08684). As to the kind of experiment: Metabolism-dependent CYP inhibition.
In series [2] the test system is CYP3A4/5. In words: CYP enzyme inhibition (testosterone 6β-hydroxylation).
The target of series [3] is organic anion transporter (OAT)3 (Homo sapiens, UniProt Q8TCC7). As to the kind of experiment: Transporter inhibition.
Series [4] addresses uridine-5′-diphospho-glucuronosyltransferase (UGT) 1A9 (Homo sapiens, UniProt O60656). In words: UGT inhibition.
Series [5] addresses OATP1B3 (Homo sapiens, UniProt Q9NPD5). In words: Transporter inhibition.
In series [6] the test system is human CYP2B6. As to the kind of experiment: CYP induction.
In series [7] the target is T1, breast cancer resistance protein (BCRP) (Homo sapiens, UniProt Q9UNQ0).
T1 sequence (Q9UNQ0 1-655): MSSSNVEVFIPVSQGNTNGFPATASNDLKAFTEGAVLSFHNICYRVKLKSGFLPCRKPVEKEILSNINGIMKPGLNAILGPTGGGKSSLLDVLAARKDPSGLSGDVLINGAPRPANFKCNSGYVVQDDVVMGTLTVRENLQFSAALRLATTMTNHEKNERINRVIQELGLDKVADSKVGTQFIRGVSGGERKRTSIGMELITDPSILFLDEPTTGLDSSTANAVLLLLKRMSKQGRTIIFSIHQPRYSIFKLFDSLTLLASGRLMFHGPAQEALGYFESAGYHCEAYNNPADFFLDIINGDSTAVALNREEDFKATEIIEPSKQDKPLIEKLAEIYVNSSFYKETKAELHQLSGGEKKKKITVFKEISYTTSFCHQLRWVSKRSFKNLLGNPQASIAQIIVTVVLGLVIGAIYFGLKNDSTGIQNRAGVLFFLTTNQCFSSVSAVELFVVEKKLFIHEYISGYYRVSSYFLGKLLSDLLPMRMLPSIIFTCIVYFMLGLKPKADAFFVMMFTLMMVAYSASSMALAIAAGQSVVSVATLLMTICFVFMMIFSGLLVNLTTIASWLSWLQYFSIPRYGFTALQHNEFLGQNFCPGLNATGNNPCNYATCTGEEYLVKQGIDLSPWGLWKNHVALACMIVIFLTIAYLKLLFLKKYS
In words: Transporter inhibition.

Series [8] has as its target uridine-5′-diphospho-glucuronosyltransferase (UGT) 1A4 (Homo sapiens, UniProt P22310). As to the kind of experiment: UGT inhibition.
The target in series [9] is CYP2C8 (Homo sapiens, UniProt P10632). In words: CYP enzyme inhibition.
The target of series [10] is organic anion transporting polypeptide (OATP)1B1 (Homo sapiens, UniProt Q9Y6L6). As to the kind of experiment: Transporter inhibition.
The target of series [11] is T1, breast cancer resistance protein (BCRP). As to the kind of experiment: Transporter substrate assessment.
For series [12], the target named is CYP2D6 (Homo sapiens, UniProt P10635). In words: CYP enzyme inhibition.
Series [13] addresses uridine-5′-diphospho-glucuronosyltransferase (UGT) 1A3 (Homo sapiens, UniProt P35503). As to the kind of experiment: UGT inhibition.
Series [14] deals with T2, P-gp (Homo sapiens, UniProt P08183). As to the kind of experiment: Transporter substrate assessment.
Series [15] deals with multidrug resistance-associated protein (MRP)2 (Homo sapiens, UniProt Q92887). In words: Transporter inhibition.
Series [16] has as its target organic cation transporter (OCT)2 (Homo sapiens, UniProt O15244). In words: Transporter inhibition.
The target of series [17] is T3, CYP2C19 (Homo sapiens, UniProt P33261). In words: Metabolism-dependent CYP inhibition.
The target in series [18] is OAT1 (Homo sapiens, UniProt Q4U2R8). As to the kind of experiment: Transporter inhibition.
The target of series [19] is T3, CYP2C19. As to the kind of experiment: CYP enzyme inhibition.
The target of series [20] is MRP3 (Homo sapiens, UniProt O15438). As to the kind of experiment: Transporter inhibition.
The subject of series [21] is human CYP3A4. As to the kind of experiment: CYP induction.
Series [22] addresses CYP2C9 (Homo sapiens, UniProt P11712). In words: CYP enzyme inhibition.
In series [23] the target is bile salts export pump (BSEP) (Homo sapiens, UniProt O95342). In words: Transporter inhibition.
The target in series [24] is T2, P-gp. In words: Transporter inhibition.

T2 sequence (P08183 whole entry): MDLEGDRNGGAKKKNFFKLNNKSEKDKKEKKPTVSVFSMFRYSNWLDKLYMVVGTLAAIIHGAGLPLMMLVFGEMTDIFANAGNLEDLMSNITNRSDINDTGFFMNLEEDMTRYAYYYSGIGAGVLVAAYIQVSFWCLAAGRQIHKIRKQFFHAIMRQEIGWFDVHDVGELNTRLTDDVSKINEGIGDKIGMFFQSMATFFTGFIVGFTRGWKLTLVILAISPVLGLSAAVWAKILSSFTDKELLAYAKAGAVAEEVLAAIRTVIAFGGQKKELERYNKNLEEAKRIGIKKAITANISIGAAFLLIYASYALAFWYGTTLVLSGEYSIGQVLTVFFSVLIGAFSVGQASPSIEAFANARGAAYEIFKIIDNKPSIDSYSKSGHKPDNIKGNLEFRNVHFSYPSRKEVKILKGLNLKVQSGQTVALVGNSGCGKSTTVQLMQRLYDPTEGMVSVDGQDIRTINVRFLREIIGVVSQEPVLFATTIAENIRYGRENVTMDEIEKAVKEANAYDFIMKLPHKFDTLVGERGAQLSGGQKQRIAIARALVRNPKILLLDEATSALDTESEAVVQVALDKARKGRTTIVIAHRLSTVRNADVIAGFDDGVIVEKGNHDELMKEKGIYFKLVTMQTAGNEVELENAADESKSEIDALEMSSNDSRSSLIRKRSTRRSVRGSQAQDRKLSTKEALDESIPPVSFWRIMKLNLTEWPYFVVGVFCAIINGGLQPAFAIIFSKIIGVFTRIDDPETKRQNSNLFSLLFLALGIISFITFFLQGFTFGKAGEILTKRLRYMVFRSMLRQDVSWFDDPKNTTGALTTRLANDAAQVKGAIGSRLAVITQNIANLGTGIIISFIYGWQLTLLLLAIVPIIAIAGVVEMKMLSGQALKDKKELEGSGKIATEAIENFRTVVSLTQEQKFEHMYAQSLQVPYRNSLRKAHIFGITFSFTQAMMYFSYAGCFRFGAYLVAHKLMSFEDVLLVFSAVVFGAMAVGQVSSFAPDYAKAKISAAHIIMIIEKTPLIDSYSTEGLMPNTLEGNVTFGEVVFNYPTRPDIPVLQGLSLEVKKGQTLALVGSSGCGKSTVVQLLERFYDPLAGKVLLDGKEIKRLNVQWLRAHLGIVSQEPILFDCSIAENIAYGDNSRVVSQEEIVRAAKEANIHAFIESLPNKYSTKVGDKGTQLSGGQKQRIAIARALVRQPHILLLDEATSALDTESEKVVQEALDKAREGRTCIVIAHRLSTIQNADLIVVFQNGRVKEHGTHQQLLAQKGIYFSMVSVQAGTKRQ
T3 sequence (P33261 whole entry): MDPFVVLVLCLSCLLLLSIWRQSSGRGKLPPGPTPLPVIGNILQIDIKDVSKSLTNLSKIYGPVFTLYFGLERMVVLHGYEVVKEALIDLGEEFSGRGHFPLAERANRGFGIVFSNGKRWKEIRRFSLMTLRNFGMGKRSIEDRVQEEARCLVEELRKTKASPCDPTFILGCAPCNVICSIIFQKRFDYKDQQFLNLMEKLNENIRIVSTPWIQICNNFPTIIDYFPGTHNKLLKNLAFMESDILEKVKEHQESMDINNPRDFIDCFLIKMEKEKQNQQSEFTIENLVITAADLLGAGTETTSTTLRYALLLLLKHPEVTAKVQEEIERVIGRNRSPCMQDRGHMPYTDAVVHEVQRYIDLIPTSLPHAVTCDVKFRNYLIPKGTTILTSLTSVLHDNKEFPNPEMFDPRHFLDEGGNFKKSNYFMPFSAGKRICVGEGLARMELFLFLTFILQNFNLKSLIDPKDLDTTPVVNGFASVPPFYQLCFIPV
Sequence of multidrug resistance-associated protein (MRP)2 (Q92887 whole entry): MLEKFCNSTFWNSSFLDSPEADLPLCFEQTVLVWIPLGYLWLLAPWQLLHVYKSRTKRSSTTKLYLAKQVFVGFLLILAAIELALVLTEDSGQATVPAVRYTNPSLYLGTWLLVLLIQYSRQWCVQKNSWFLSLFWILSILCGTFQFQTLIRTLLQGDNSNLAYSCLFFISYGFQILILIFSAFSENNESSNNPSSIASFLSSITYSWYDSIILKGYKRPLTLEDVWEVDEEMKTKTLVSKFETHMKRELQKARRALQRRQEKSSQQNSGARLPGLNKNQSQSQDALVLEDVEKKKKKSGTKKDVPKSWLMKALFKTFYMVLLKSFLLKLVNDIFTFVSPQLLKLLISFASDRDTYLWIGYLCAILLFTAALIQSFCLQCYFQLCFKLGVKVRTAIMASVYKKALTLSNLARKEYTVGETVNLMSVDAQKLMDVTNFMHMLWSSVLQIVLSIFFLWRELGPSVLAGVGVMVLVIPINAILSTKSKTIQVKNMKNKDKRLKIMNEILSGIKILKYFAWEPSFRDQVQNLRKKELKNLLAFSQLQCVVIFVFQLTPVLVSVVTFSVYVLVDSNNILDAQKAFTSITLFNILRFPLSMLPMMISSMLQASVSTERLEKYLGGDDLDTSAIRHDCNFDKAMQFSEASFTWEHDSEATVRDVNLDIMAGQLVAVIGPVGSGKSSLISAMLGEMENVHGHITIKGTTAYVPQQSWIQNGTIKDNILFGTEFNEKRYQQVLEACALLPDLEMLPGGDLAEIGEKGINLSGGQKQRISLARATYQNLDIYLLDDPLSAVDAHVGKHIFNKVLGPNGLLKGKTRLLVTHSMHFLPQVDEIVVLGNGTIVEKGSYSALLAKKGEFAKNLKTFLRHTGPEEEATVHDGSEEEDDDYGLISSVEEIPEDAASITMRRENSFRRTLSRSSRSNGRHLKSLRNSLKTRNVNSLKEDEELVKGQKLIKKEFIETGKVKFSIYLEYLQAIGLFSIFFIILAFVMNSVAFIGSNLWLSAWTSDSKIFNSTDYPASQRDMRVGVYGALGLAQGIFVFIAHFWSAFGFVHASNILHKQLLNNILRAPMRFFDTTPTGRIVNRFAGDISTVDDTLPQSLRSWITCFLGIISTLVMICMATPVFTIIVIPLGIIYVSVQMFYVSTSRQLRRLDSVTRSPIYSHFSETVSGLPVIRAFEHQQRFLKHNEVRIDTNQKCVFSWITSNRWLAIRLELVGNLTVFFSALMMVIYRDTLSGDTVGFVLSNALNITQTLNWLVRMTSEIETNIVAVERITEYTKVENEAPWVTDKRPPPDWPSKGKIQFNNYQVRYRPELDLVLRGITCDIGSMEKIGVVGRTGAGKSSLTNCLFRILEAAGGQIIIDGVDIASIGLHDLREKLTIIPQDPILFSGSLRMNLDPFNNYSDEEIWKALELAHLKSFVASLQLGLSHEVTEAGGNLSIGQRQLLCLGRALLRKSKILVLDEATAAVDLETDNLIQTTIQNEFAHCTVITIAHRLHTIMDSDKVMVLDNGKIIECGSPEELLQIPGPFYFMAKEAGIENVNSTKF
Sequence of OAT1 (Q4U2R8 whole entry): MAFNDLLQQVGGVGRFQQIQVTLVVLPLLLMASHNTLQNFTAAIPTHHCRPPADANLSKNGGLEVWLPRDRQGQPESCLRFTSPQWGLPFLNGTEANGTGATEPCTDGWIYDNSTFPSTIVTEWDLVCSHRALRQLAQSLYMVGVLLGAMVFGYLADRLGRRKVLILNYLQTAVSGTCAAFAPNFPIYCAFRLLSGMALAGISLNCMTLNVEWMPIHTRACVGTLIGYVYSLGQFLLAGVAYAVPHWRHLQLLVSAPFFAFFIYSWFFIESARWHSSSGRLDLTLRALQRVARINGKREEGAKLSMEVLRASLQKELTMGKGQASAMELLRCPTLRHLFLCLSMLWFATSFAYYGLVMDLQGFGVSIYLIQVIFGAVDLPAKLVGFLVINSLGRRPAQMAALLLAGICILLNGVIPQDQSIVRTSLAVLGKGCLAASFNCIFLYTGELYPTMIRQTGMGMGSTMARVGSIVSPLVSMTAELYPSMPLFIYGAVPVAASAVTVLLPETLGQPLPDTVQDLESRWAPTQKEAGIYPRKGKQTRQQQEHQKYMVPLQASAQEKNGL
Sequence of uridine-5′-diphospho-glucuronosyltransferase (UGT) 1A9 (O60656 26-530): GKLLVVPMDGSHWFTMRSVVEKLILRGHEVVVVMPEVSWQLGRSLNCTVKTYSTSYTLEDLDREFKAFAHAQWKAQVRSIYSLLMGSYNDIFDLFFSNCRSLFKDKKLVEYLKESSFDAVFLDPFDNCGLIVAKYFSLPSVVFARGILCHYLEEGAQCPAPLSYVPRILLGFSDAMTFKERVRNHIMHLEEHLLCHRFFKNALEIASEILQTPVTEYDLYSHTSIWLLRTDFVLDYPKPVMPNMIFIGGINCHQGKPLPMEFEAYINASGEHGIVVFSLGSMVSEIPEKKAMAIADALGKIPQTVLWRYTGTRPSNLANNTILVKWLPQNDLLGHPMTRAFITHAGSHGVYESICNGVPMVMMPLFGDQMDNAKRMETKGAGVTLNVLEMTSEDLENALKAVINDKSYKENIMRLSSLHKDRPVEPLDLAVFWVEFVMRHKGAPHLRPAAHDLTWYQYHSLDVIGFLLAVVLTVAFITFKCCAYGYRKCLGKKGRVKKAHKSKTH
Sequence of uridine-5′-diphospho-glucuronosyltransferase (UGT) 1A3 (P35503 29-534): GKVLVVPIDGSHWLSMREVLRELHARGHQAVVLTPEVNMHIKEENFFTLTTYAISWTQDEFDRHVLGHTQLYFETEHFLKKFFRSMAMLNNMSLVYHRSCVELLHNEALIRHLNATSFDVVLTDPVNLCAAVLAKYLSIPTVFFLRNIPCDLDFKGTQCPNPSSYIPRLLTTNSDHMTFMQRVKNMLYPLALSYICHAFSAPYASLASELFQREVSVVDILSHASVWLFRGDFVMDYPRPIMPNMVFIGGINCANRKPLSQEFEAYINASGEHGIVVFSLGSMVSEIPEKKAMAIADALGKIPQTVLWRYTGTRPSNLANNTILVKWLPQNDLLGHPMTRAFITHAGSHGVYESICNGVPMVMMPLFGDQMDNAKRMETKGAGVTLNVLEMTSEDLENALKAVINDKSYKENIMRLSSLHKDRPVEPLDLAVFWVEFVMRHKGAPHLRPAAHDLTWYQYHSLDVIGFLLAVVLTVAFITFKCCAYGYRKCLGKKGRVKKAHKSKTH

`O=C(c1ccc(NS(=O)(=O)c2cccc3cccnc23)cc1)N1CCN(CC2CC2)CC1` [Mitapivat sulfate]: in series [1], the “Metabolism-dependent inhibition of CYP3A4 (evidence found), reversibility” value is “largely irreversible”. In [2], the “Inhibition of CYP3A4/5” value is listed as “mild inhibitor”. Also, the “Inhibition of OAT3” value in series [3] is on record as “mild inhibitor”. Moreover, the “Inhibition of UGT1A9” value in series [4] is “mild inhibitor”. Moreover, the “Inhibition of OATP1B3” value in series [5] is given as “does not appear to be an inhibitor”. The “Induction of human CYP2B6” value in series [6] is given as “potential inducer”. In addition, in series [7], the “Inhibitor for BCRP” value is reported as “not for breast cancer resistance protein (BCRP)”. In addition, the “Inhibition of UGT1A4” value in series [8] was “mild inhibitor”. Further, in [9], the “Inhibition of CYP2C8” value was “mild inhibitor”. For the same molecule, the “Inhibition of OATP1B1” value in series [10] is reported as “mild inhibitor”. In addition, the “Substrate for BCRP” value in [11] is on record as “not for breast cancer resistance protein (BCRP)”. In addition, the “Inhibition of CYP2D6” value in [12] is reported as “mild inhibitor”. For the same molecule, the “Inhibition of UGT1A3” value in series [13] is given as “mild inhibitor”. In [14], the “Substrate for P-gp” value was “substrate”. The “Inhibition of MRP2” value in series [15] is listed as “does not appear to be an inhibitor”. Besides, the “Inhibition of OCT2” value in series [16] was “mild inhibitor”. The “Metabolism-dependent inhibition of CYP2C19 (evidence found), reversibility” value in series [17] was “largely reversible”. Besides, the “Inhibition of OAT1” value in series [18] is “does not appear to be an inhibitor”. Besides, in series [19], the “Inhibition of CYP2C19” value is “mild inhibitor”. In series [20], the “Inhibition of MRP3” value is recorded as “does not appear to be an inhibitor”. Besides, in series [21], the “Induction of human CYP3A4” value is reported as “potential inducer”. For the same molecule, the “Inhibition of CYP2C9” value in series [22] was “mild inhibitor”. Besides, the “Inhibition of BSEP” value in series [23] was “mild inhibitor”. Also, in [24], the “Inhibitor for P-gp” value is recorded as “inhibitor”.
